From publication PMC9019904, “AD Informer Set: Chemical tools to facilitate Alzheimer's disease drug discovery” (Alzheimer's & Dementia : Translational Research & Clinical …, 2022)
≈ marks a conversion by molar mass, not a printed value. Where a SMILES comes first, the peptide text is derived from it. [ ]: non-standard residue; d: D form. dHyp = O=C(O)[C@H]1C[C@H](O)CN1

Legend:
[1] = system: BV2 (mouse microglia) cell line; assay: pHrodo-myelin phagocytosis/cell viability high content imaging assay: viability (cell count, nuclear area, nuclear intensity)
In short: (§1)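 Duplicate single-point screen at 10 μM over 48 h, combined with pHrodo-myelin phagocytosis during the last 20 h. Cytotoxicity is taken from imaged cell counts and nuclear intensity changes, normalized to untreated wells as % control.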

[2] = Kinetic solubility in aqueous buffer pH 7.4 by total chemiluminescent nitrogen determination (Analiza); settings: for solubility kinetic: aqueous buffer, pH 7.4, aqueous buffer, kinetic from dmso stock
[3] = system: BV2 (mouse microglia) cell line; assay: pHrodo-myelin phagocytosis/cell viability high content imaging assay: phagocytosis signal; assay type: cell-based
In short: (§2)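 Phagocytosis and cell viability were measured together by high content imaging about 22 hours after pHrodo-myelin addition. Three measurements were extracted from the images. Intensity increase and decrease were taken as early and later apoptosis, respectively.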

[4] = system: HMC3 (human microglia) cell line; assay: as above; assay type: cell-based
In short: as §2

cellular system = settings: published cellular activity at 10 μM; cited from earlier work
[5] = system: HMC3 (human microglia) cell line; assay: pHrodo-myelin phagocytosis/cell viability high content imaging assay: viability (cell count, nuclear area, nuclear intensity); settings: HMC3 cells, 10 μM, cell count <70% control
In short: as §1

[6] = BV2 cells, 10 μM, cell count <70% control
[7] = pH 7.4, aqueous buffer, kinetic from dmso stock

SMILES	Mouse microglial cytotoxicity at 10 μM (<70% control) [1, 6]	solubility kinetic [2]	Inhibition of human microglial phagocytosis at 10 μM (<70% control) ([4]; HMC3 cells, 10 μM)	Reported as cell active (<10 μM) (cellular system)	solubility kinetic (physchem; [7])	also measured
CCOC(=O)c1sc(NC(=O)c2ccco2)c(SC#N)c1C [CBR-5884]	Y (The compound was found to be cytotoxic (cell count threshold: <70% control) when murine immortalized microglial cells were dosed at 10 μM (Y: yes))	2.8 µM (≈ 0.942 µg/mL)	Y (The compound was found to inhibit phagocytosis (response threshold: <70% control) when human immortalized microglial cells were dosed at 10 μM (Y: yes))	N (tested/active at 15 μM)	–	Stimulation of mouse microglial phagocytosis at 10 μM (>150% control) ([3]; BV2 cells, 10 μM): Y (The compound was found to stimulate phagocytosis (response threshold: >150% control) when murine immortalized microglial cells were dosed at 10 μM (Y: yes))
CC(C)(C)c1cc(NC(=O)Nc2ccc(-c3cn4c(n3)sc3cc(OCCN5CCOCC5)ccc34)cc2)no1 [Quizartinib]	–	–	–	–	0.9 µM (≈ 0.505 µg/mL)	–
O=C(Nc1c[nH]nc1-c1nc2ccc(CN3CCOCC3)cc2[nH]1)NC1CC1 [AT9283]	Y (The compound was found to be cytotoxic (cell count threshold: <70% control) when murine immortalized microglial cells were dosed at 10 μM (Y: yes))	144 µM (≈ 55.1 µg/mL)	Y (The compound was found to inhibit phagocytosis (response threshold: <70% control) when human immortalized microglial cells were dosed at 10 μM (Y: yes))	Y (Published data supports that the compound is active in a cellular system when dosed at 10 μM (Y/N))	–	Inhibition of mouse microglial phagocytosis at 10 μM (<70% control) ([3]; BV2 cells, 10 μM): Y (The compound was found to inhibit phagocytosis (response threshold: <70% control) when murine immortalized microglial cells were dosed at 10 μM (Y: yes))
CC(C)CCN1c2nc(Nc3cc(F)c(O)c(F)c3)ncc2N(C)C(=O)C1C (stereo not shown) [BI-D1870]	Y (The compound was found to be cytotoxic (cell count threshold: <70% control) when murine immortalized microglial cells were dosed at 10 μM (Y: yes))	0.8 µM (≈ 0.313 µg/mL)	–	Y (Published data supports that the compound is active in a cellular system when dosed at 10 μM (Y/N))	–	Human microglial cytotoxicity at 10 μM (<70% control) [5]: Y (The compound was found to be cytotoxic (cell count threshold: <70% control) when human immortalized microglial cells were dosed at 10 μM (Y: yes)); Stimulation of human microglial phagocytosis at 10 μM (>150% control) ([4]; HMC3 cells, 10 μM): Y (The compound was found to stimulate phagocytosis (response threshold: >150% control) when human immortalized microglial cells were dosed at 10 μM (Y: yes))
COS(=O)(=O)[O-].C[n+]1c2ccccc2nc2ccccc21 [Phenazine methosulfate]	Y (The compound was found to be cytotoxic (cell count threshold: <70% control) when murine immortalized microglial cells were dosed at 10 μM (Y: yes))	–	Y (The compound was found to inhibit phagocytosis (response threshold: <70% control) when human immortalized microglial cells were dosed at 10 μM (Y: yes))	Y (Published data supports that the compound is active in a cellular system when dosed at 10 μM (Y/N))	–	Human microglial cytotoxicity at 10 μM (<70% control) [5]: Y (The compound was found to be cytotoxic (cell count threshold: <70% control) when human immortalized microglial cells were dosed at 10 μM (Y: yes)); Kinetic solubility ([2]; aqueous buffer pH 7.4): 101.8 µM; Inhibition of mouse microglial phagocytosis at 10 μM (<70% control) ([3]; BV2 cells, 10 μM): Y (The compound was found to inhibit phagocytosis (response threshold: <70% control) when murine immortalized microglial cells were dosed at 10 μM (Y: yes))
COc1cc(/C=C/c2ccc(NC(=O)/C=C/c3cc(OC)c(OC)c(OC)c3)cc2)cc(OC)c1 [STAT3-IN-3]	Y (The compound was found to be cytotoxic (cell count threshold: <70% control) when murine immortalized microglial cells were dosed at 10 μM (Y: yes))	4.9 µM (≈ 2.33 µg/mL)	Y (The compound was found to inhibit phagocytosis (response threshold: <70% control) when human immortalized microglial cells were dosed at 10 μM (Y: yes))	Y (Published data supports that the compound is active in a cellular system when dosed at 10 μM (Y/N))	–	Inhibition of mouse microglial phagocytosis at 10 μM (<70% control) ([3]; BV2 cells, 10 μM): Y (The compound was found to inhibit phagocytosis (response threshold: <70% control) when murine immortalized microglial cells were dosed at 10 μM (Y: yes))
CCCN(CC1CC1)c1nc(C)nc(Nc2c(Cl)cc(Cl)cc2Cl)c1Cl.Cl [NBI 27914 (Compound 7a)]	–	–	–	–	< 0.5 µM	Mouse microglial cytotoxicity at 10 μM (<70% control) ([1]; BV2, 10 μM): Y (The compound was found to be cytotoxic (cell count threshold: <70% control) when murine immortalized microglial cells were dosed at 10 μM (Y: yes)); Stimulation of mouse microglial phagocytosis at 10 μM (>150% control) ([3]; BV2, 10 μM): Y (The compound was found to stimulate phagocytosis (response threshold: >150% control) when murine immortalized microglial cells were dosed at 10 μM (Y: yes))
CNC(=O)c1c(F)cccc1Nc1nc(Nc2cc3c(cc2OC)CCN3C(=O)CN(C)C)nc2[nH]ccc12 [GSK1838705A]	–	–	–	–	1 µM (≈ 0.533 µg/mL)	Mouse microglial cytotoxicity at 10 μM (<70% control) ([1]; BV2, 10 μM): Y (The compound was found to be cytotoxic (cell count threshold: <70% control) when murine immortalized microglial cells were dosed at 10 μM (Y: yes)); Inhibition of human microglial phagocytosis at 10 μM (<70% control) ([4]; HMC3, 10 μM): Y (The compound was found to inhibit phagocytosis (response threshold: <70% control) when human immortalized microglial cells were dosed at 10 μM (Y: yes))
COc1cc(Nc2ncc(F)c(Nc3ccc4c(n3)N(COP(=O)(O)O)C(=O)C(C)(C)O4)n2)cc(OC)c1OC [Fostamatinib]	Y (The compound was found to be cytotoxic (cell count threshold: <70% control) when murine immortalized microglial cells were dosed at 10 μM (Y: yes))	161 µM (≈ 93.5 µg/mL)	–	Y (Published data supports that the compound is active in a cellular system when dosed at 10 μM (Y/N))	–	Inhibition of mouse microglial phagocytosis at 10 μM (<70% control) ([3]; BV2 cells, 10 μM): Y (The compound was found to inhibit phagocytosis (response threshold: <70% control) when murine immortalized microglial cells were dosed at 10 μM (Y: yes)); Stimulation of human microglial phagocytosis at 10 μM (>150% control) ([4]; HMC3 cells, 10 μM): Y (The compound was found to stimulate phagocytosis (response threshold: >150% control) when human immortalized microglial cells were dosed at 10 μM (Y: yes))
CCCCCCOc1cc2c(cc1N(C)c1ncc(C(=O)O)cn1)C(C)(C)CCC2(C)C [PA 452]	–	13.9 µM (≈ 6.11 µg/mL)	Y (The compound was found to inhibit phagocytosis (response threshold: <70% control) when human immortalized microglial cells were dosed at 10 μM (Y: yes))	Y (Published data supports that the compound is active in a cellular system when dosed at 10 μM (Y/N))	–	Stimulation of mouse microglial phagocytosis at 10 μM (>150% control) ([3]; BV2 cells, 10 μM): Y (The compound was found to stimulate phagocytosis (response threshold: >150% control) when murine immortalized microglial cells were dosed at 10 μM (Y: yes))
CCCCc1nc(Cl)c(CO)n1Cc1ccc(-c2ccccc2-c2nn[nH]n2)cc1 [Losartan]	–	–	–	–	117 µM (≈ 49.6 µg/mL)	–
COC(=O)C1=C(C)NC2=C(C(=O)c3ccccc32)C1c1ccccc1OCc1ccccc1F (stereo not shown) [5408-1697]	–	< 2.1 µM	Y (The compound was found to inhibit phagocytosis (response threshold: <70% control) when human immortalized microglial cells were dosed at 10 μM (Y: yes))	Y (Published data supports that the compound is active in a cellular system when dosed at 10 μM (Y/N))	–	Stimulation of mouse microglial phagocytosis at 10 μM (>150% control) ([3]; BV2 cells, 10 μM): Y (The compound was found to stimulate phagocytosis (response threshold: >150% control) when murine immortalized microglial cells were dosed at 10 μM (Y: yes))
CC(=O)N1CCC(NC(=O)NC23CC4CC(CC(C4)C2)C3)CC1 [AR9281]	–	–	–	–	163 µM (≈ 51.9 µg/mL)	Stimulation of mouse microglial phagocytosis at 10 μM (>150% control) ([3]; BV2, 10 μM): Y (The compound was found to stimulate phagocytosis (response threshold: >150% control) when murine immortalized microglial cells were dosed at 10 μM (Y: yes))
CC(=O)N[C@H](Cc1ccc(O)cc1)C(=O)N1CCC[C@@H]1C(=O)N1C[C@@H](O)C[C@@H]1C(=O)NCC(=O)N[C@H](C)C(=O)NCC(N)=O [Rotigaptide] (Ac-[dY][dP][dHyp]G[dA]G-NH2)	–	–	–	–	–	solubility kinetic (physchem; pH 7.4): 177 µM (≈ 110 µg/mL)
Cc1cc(NC(=O)Cc2ccc(F)c(Cl)c2)n(C2CCCCC2)n1 [VU0810464]	–	–	–	–	108 µM (≈ 37.9 µg/mL)	–
COc1ccc(CC[C@@H](OC(=O)[C@@H]2CCCCN2C(=O)[C@H](c2cc(OC)c(OC)c(OC)c2)C2CCCCC2)c2cccc(OCC(=O)O)c2)cc1OC [SAFit1]	–	–	–	–	87.3 µM (≈ 65.3 µg/mL)	Stimulation of mouse microglial phagocytosis at 10 μM (>150% control) ([3]; 10 μM, BV2): Y (The compound was found to stimulate phagocytosis (response threshold: >150% control) when murine immortalized microglial cells were dosed at 10 μM (Y: yes))
CCOC(=O)CS(=O)(=O)c1ccc([C@@H](CO)NC(=O)c2cc3c(Cl)c(Cl)c(C)cc3n2C)cc1 [BI-4916]	Y (The compound was found to be cytotoxic (cell count threshold: <70% control) when murine immortalized microglial cells were dosed at 10 μM (Y: yes))	< 1.1 µM	Y (The compound was found to inhibit phagocytosis (response threshold: <70% control) when human immortalized microglial cells were dosed at 10 μM (Y: yes))	Y (Published data supports that the compound is active in a cellular system when dosed at 10 μM (Y/N))	–	Stimulation of mouse microglial phagocytosis at 10 μM (>150% control) ([3]; BV2 cells, 10 μM): Y (The compound was found to stimulate phagocytosis (response threshold: >150% control) when murine immortalized microglial cells were dosed at 10 μM (Y: yes))
